These results are taken from publication PMC7213079, “Hit Identification of New Potent PqsR Antagonists as Inhibitors of Quorum Sensing in Planktonic and Biofilm Grown Pseudomonas aeruginosa” (Frontiers in Chemistry, 2020).

Holding throughout (assay type): cell-based, Pseudomonas aeruginosa
In assay [1] the test system is PAO1-L mCTX::PpqsA-lux. In words: PpqsA-lux bioreporter assay, strain PAO1-L. The following applies: for IC50 PAO1-L: n = 9, NA = not active at 10 μM; for activity at 10 µM / IC50: Pseudomonas aeruginosa; for activity at 10 µM: PAO1, read-out: Remaining Activity % (RA%) at 10 μM PAO1-L; for IC50: PAO1, read-out: IC50 PAO1-L. How it is done:
In silico virtual screening was performed on the PqsR ligand binding domain (LBD) crystal structure [PDB: 4JVI; (Ilangovan et al., [2013])] using the University of Nottingham Managed Chemical Compound Collection (MCCC) containing 85,061 compounds. Molecular docking was performed using both the OpenEye docking (OpenEye Scientific Software Inc. (Hawkins et al., [2007]) and Schrödinger Suite for molecular modeling (Friesner et al., [2004]; Halgren et al., [2004]). A cut off value of the docking score function was set to -9.0 and the resulting high scoring compounds were further examined (Friesner et al., [2004]; Halgren et al., [2004]). This gave a library of around 500 diverse molecules that were evaluated using in vitro screening in a P. aeruginosa PAO1-L mCTX::PPqsA-lux reporter assay (Diggle et al., [2011]).
(§1) To inform the structural variation of 7, crystal structures with the endogenous ligand [4-hydroxy-2-heptylquinoline (NHQ)] and the inhibitor M64 were used (Ilangovan et al., [2013]; Kitao et al., [2018]). The PqsR LBD is dominated by lipophilic interactions, therefore the current SAR exploration mainly focused on varying the aromatic tail substituents and examining the effect of 8-position substitution. The rationale for these modifications was primarily based on molecular docking studies that provided insights into the mode of binding of 7 and approaches intended to improve potency. The substituent at the para- position of the aromatic ring appeared to be crucial for biological activity due to the vital π-π stacking interaction of this group with Tyr^258. […] These strains emit light upon activation of PqsR by the endogenous production of these signal molecules. […] The results of the SAR in this assay highlight the importance of testing any prospective anti-virulence strategy on multiple genetically distinct P. aeruginosa strains as a means to reduce the chance of failure at both pre-clinical and clinical stages (Freschi et al., [2015]).
(§2) PAO1-L Wild type PAO1, Lausanne subline. B.
PAO1-L mCTX::PpqsA- PAO1-L with chromosomal mini-CTX::PpqsA-lux (Soukarieh lux insertion; TcR et al., 2018) […]
(§3) mini-CTX::PpqsA-lux R6K-based mini-CTX suicide plasmid for the (Diggle et chromosomal insertion of a PpqsA-lux al., 2007) transcriptional reporter fusion; TcR
(§4) Biosensor reporter assay:
(§5) Strains PA14 mCTX::PpqsA-lux and PAO1-L mCTX::PpqsA-lux were constructed using plasmid mini-CTX::PpqsA-lux as previously described (Diggle et al., 2007) and the assay was performed according to published procedures (Fletcher et al., 2007). For screening, the compounds were tested at 10 µM concentration which was prepared from 10 mM stock in DMSO. […]
(In general: Reporter assays use an easily measured gene product as a stand-in for the process of interest.)

Assay [2] concerns PA14 mCTX::PpqsA-lux. Nature of the assay: PpqsA-lux bioreporter assay, strain PA14. The note with it: for IC50 PA14: PpqsA-lux bioreporter, n = 9, NA = not active at 10 μM; for IC50: Pseudomonas aeruginosa, PA14, read-out: IC50 PA14.
Text: as §1, with “[2015]). […]” for “[2015]).”
(§6) PA14 mCTX::PpqsA-lux PA14 with chromosomal mini-CTX::PpqsA-lux (Soukarieh insertion; TcR et al., 2018) […]
as §3, §4, §5

Assay [3] concerns PA14. Nature of the assay: Pyocyanin quantification, PA14. The following applies: PA14, compound at 3 x IC50, 16 h, compared with the control.
Text: Pyocyanin is an important virulence factor for P. aeruginosa infections and in particular respiratory and urinary tract infections. Pyocyanin is a redox-active phenazine the production of which is regulated via PqsR and PqsE (Hall et al., [2016]; Rampioni et al., [2016]; Higgins et al., [2018]). Therefore, pyocyanin production serves as an indirect readout of the activity of the pqs QS system. […] Compound 40 reduced pyocyanin production by over 80% in both strains in agreement with bioreporter assay results.
Figure 4 Pyocyanin production by Pseudomonas aeruginosa after treatment with pqs inhibitors 8, 14, 23, 34, 25, 26, and 40. Quantification of pyocyanin production after inhibitor treatment at 3 × IC50 for both PAO1-L and PA14. The graph represents the average of three independent experiments carried out in triplicate (n = 9).
as §2
PAO1-L mCTX::PpqsA- PAO1-L with chromosomal mini-CTX::PpqsA-lux (Soukarieh lux insertion; TcR et al., 2018)
PA14 Wild type UCBPP-PA14 (Rahme et
as §6
Pyocyanin quantification: […]
Pyocyanin pigment was extracted into chloroform by mixing 7.5 mL of supernatant with 4.5 mL of chloroform. Pyocyanin w as further extracted into 1.5 mL of 0.2 M HCL which gave a pink/red solution and the absorbance was measured at 520 nm.

`Cn1c2ccc(Br)cc2c2nnc(SCC(=O)Nc3ccccc3Cl)nc21` [Compound 39, 2-((8-Bromo-5-methyl-5H-[1,2,4]triazino[5,6-b]indol-3-yl)thio)-N-(2-chlorophenyl)acetamide]: the “IC50 PAO1-L” value in assay [1] (PpqsA-lux bioreporter) was “inactive”. For the same molecule, the “IC50 PA14” value in assay [2] is “inactive”.
In the case of `Cn1c2ccc(Br)cc2c2nnc(SCC(=O)Nc3cccc(Cl)c3)nc21` [Compound 12, 2-((8-Bromo-5-methyl-5H-[1,2,4]triazino[5,6-b]indol-3-yl)thio)-N-(3-chlorophenyl)acetamide], the activity at 10 µM in assay [1] is 43%. The “IC50 PA14” value in assay [2] was “inactive”.
Consider `Cn1c2ccc(Br)cc2c2nnc(SCC(=O)Nc3ccc(OC(F)(F)F)cc3)nc21` [Compound 22, 2-((8-Bromo-5-methyl-5H-[1,2,4]triazino[5,6-b]indol-3-yl)thio)-N-(4-(trifluoromethoxy)phenyl)acetamide], for which the activity at 10 µM in assay [1] turned out to be 23%.
For `Cn1c2ccccc2c2nnc(SCC(=O)Nc3ccc(Oc4ccccc4)cc3)nc21` [Compound 24, 2-((5-Methyl-5H-[1,2,4]triazino[5,6-b]indol-3-yl)thio)-N-(4-phenoxyphenyl)acetamide], in assay [1] (PpqsA-lux bioreporter), the “fold higher activity in PAO1-L compared to 7” value is listed as about 2.5 fold. Further, the IC50 (in general, the midpoint of a concentration-inhibition curve) in assay [1] worked out at 0.38 ± 0.06 µM; in assay [2], 0.35 ± 0.06 µM.
As for `Cn1c2ccc(Br)cc2c2nnc(SCC(=O)Nc3ccc(Br)cc3)nc21` [Compound 27, 2-((8-Bromo-5-methyl-5H-[1,2,4]triazino[5,6-b]indol-3-yl)thio)-N-(4-bromophenyl)acetamide], the IC50 in assay [1] stood at 23 ± 9 µM. Besides, in assay [2], the “IC50 PA14” value is “inactivity”.
Turning to `Cc1ccc(NC(=O)CSc2nnc3c4ccccc4n(C)c3n2)cc1` [Compound 17, 2-((5-Methyl-5H-[1,2,4]triazino[5,6-b]indol-3-yl)thio)-N-(p-tolyl)acetamide], the IC50 in assay [1] was found to be 1.86 ± 0.01 µM.
For the molecule `Cn1c2ccccc2c2nnc(SCC(=O)Nc3cccc(Cl)c3)nc21` [Compound 11, N-(3-Chlorophenyl)-2-((5-methyl-5H-[1,2,4]triazino[5,6-b]indol-3-yl)thio)acetamide], the activity at 10 µM in assay [1] worked out at 34%. For the same molecule, the “IC50 PA14” value in assay [2] is “inactive”.
As to `Cn1c2ccc(Br)cc2c2nnc(SCC(=O)Nc3ccc(Cl)c(Cl)c3)nc21` [Compound 14, 2-((8-Bromo-5-methyl-5H-[1,2,4]triazino[5,6-b]indol-3-yl)thio)-N-(3,4-dichlorophenyl)acetamide], the IC50 stood at 3.1 ± 0.52 µM in assay [1] and 7.58 ± 0.82 µM in assay [2].
The corresponding values for `Cn1c2ccc(Br)cc2c2nnc(SCC(=O)Nc3ccc(Cl)cc3)nc21` [Compound 8, 2-((8-Bromo-5-methyl-5H-[1,2,4]triazino[5,6-b]indol-3-yl)thio)-N-(4-chlorophenyl)acetamide] are 1.99 ± 0.23 µM and 1.6 ± 0.16 µM.
For `Cc1ccc(NC(=O)CSc2nnc3c4cc(Br)ccc4n(C)c3n2)cc1` [Compound 18, 2-((8-Bromo-5-methyl-5H-[1,2,4]triazino[5,6-b]indol-3-yl)thio)-N-(p-tolyl)acetamide], in assay [1], the activity at 10 µM is 32%.
`Cn1c2ccccc2c2nnc(SCC(=O)Nc3ccc(CC#N)cc3)nc21` [Compound 23, N-(4-(Cyanomethyl)phenyl)-2-((5-methyl-5H-[1,2,4]triazino[5,6-b]indol-3-yl)thio)acetamide]: the IC50 in assay [1] is 0.62 ± 0.1 µM; in assay [2], 2 ± 0.17 µM. Further, the “inhibition of pyocyanin production” value in assay [3] is recorded as “most potent inhibitor”.
As to `Cn1c2ccccc2c2nnc(SCC(=O)Nc3ccc(Br)cc3)nc21` [Compound 26, N-(4-Bromophenyl)-2-((5-methyl-5H-[1,2,4]triazino[5,6-b]indol-3-yl)thio)acetamide], the IC50 was 1.71 ± 0.26 µM in assay [1] and 1.35 ± 0.19 µM in assay [2].
`Cn1c2ccc(Br)cc2c2nnc(SCC(=O)Nc3ccc(Oc4ccccc4)cc3)nc21` [Compound 25, 2-((8-Bromo-5-methyl-5H-[1,2,4]triazino[5,6-b]indol-3-yl)thio)-N-(4-phenoxyphenyl)acetamide]: in assay [1], the IC50 turned out to be 4.36 ± 0.42 µM.
Regarding `O=C(CSc1nc2cc([N+](=O)[O-])ccc2[nH]1)Nc1ccc(Oc2ccccc2)cc1` [Compound M64, reference compound], the IC50 was determined as 0.32 ± 0.14 µM in assay [1] and 1.22 ± 0.34 µM in assay [2].
Consider `Cn1c2ccccc2c2nnc(SCC(=O)Nc3ccc(Cl)cc3)nc21` [Compound 7, N-(4-Chlorophenyl)-2-((5-methyl-5H-[1,2,4]triazino[5,6-b]indol-3-yl)thio)acetamide], for which the IC50 in assay [1] came to 0.98 ± 0.02 µM. Also, the “IC50 PA14” value in assay [2] was “inactive”.
Turning to `Cn1c2ccc(Br)cc2c2nnc(SCC(=O)Nc3ccc(F)cc3)nc21` [Compound 16, 2-((8-Bromo-5-methyl-5H-[1,2,4]triazino[5,6-b]indol-3-yl)thio)-N-(4-fluorophenyl)acetamide], the IC50 in assay [1] stood at 1.36 ± 0.21 µM.
As for `Cn1c2ccccc2c2nnc(SCC(=O)Nc3ccccc3Cl)nc21` [Compound 38, N-(2-Chlorophenyl)-2-((5-methyl-5H-[1,2,4]triazino[5,6-b]indol-3-yl)thio)acetamide], the “IC50 PAO1-L” value in assay [1] (PpqsA-lux bioreporter) was “inactive”. In addition, the “IC50 PA14” value in assay [2] is “inactive”.
For `Cn1c2ccccc2c2nnc(SCC(=O)Nc3ccc(Oc4ncccn4)cc3)nc21` [Compound 28, 2-((5-Methyl-5H-[1,2,4]triazino[5,6-b]indol-3-yl)thio)-N-(4-(pyrimidin-2yloxy)phenyl)acetamide], the IC50 in assay [1] is 1.04 ± 0.12 µM; in assay [2], 1.33 ± 0.33 µM.
With `Cn1c2ccccc2c2nnc(SCC(=O)Nc3ccc(OC(F)(F)F)cc3)nc21` [Compound 21, 2-((5-Methyl-5H-[1,2,4]triazino[5,6-b]indol-3-yl)thio)-N-(4(trifluoromethoxy)phenyl)acetamide], in assay [1], the activity at 10 µM turned out to be 29%.
